Results: ChEMBL document CHEMBL5726535, “Use of agonists of formyl peptide receptor 2 for treating ocular inflammatory diseases” (2019)

Target: T1, N-formyl peptide receptor 2 (Homo sapiens, UniProt P25090)
T1 sequence (P25090 whole entry): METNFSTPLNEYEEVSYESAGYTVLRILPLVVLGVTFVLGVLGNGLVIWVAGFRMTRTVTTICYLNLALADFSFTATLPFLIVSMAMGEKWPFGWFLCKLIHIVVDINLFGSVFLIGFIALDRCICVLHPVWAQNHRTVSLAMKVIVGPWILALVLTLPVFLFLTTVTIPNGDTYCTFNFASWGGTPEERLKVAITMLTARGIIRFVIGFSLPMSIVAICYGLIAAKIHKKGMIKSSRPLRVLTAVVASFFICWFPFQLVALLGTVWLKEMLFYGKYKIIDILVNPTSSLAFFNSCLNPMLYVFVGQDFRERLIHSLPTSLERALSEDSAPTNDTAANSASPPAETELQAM
Experiment: FLIPR: HEK-Gα16 cells stably expressing the human FPR2 receptor was utilized. Cells were plated into 384-well poly-D-lysine coated plates at a density of 18,000 cells per well one day prior to use. The growth media was DMEM medium supplemented with 10% fetal bovine serum (FBS), 1% antibiotic-antimycotic, 50 μg/ml hygromycin, and 400 μg/ml geneticin. On the day of the experiment, the cells were …

EC50: < 1 nM
Structure (SMILES): NC(=O)C1C(C(=O)Nc2ccc(Br)cc2)C2CCC1C21CC1 (single isomer, unassigned)
